Experimental data taken from article PMC6443933, “Antagonizing Retinoic Acid-Related-Orphan Receptor Gamma Activity Blocks the T Helper 17/Interleukin-17 Pathway Leading to Attenuated Pro-inflammatory Human Keratinocyte and Skin Responses” (Frontiers in Immunology, 2019).
* marks the point of attachment. Biotin = O=C1N[C@H]2[C@H](CS[C@H]2CCCCC(=O)*)N1; Ahx = NCCCCCC(=O)O

Experiments:
NHEKs = assay: IL-17A/TNFα spike-in in primary keratinocytes (NHEKs), qRT-PCR; type: cell-based, human; conditions: 0.75 μg/ml; similar to TNFα stimulation
Protocol: The HaCaT keratinocyte cell line was purchased from AddexBio and was maintained in RPMI 1640 medium supplemented with Glutamax, Penicillin/Streptomycin (all from Gibco) and 10% FCS (PAA). Normal primary human epidermal keratinocytes (NHEKs) were purchased from Lonza and PromoCell, respectively. Cells were cultured in Keratinocyte basal growth medium (KBM; Lonza) containing KGM2 growth supplements including insulin, human epidermal growth factor, bovine pituitary extract, hydrocortisone, epinephrine, transferrin, and gentamicin/amphotericin B (Lonza). HaCaT cells were incubated in a 96-well-microtiter plate (2 × 10^4 cells/well) with Th17 cytokine-containing supernatants obtained from total CD4^+ T-cells that were polarized for 72 h in the presence of anti-CD3/CD28 antibodies and a Th17 polarization cocktail as described above. […] Cytokine concentrations in supernatants were determined from representative experiments and they contained approximately 150 pg/ml or 600 pg/ml of IL-17 in 10 μM or in 0.13 nM treated samples, respectively. […]
Total RNA from human Th17 cells (6 × 10^5 cells), RORγt-RORE HUT78 cells (4 × 10^5 cells) and HaCaT cells (6 × 10^4 cells) was extracted using RNeasy kit including a DNAse I digestion step according to the manufacturer‘s protocol (Qiagen). […] Quantitative RT-PCR analysis was performed using a TaqManViiA7 (Applied Biosystems). […]

HaCaT keratinocytes = assay: IL-17-driven HaCaT keratinocyte responses (Th17 supernatants or spiked cytokines), qRT-PCR; type: cell-based, human
Protocol: The HaCaT keratinocyte cell line was purchased from AddexBio and was maintained in RPMI 1640 medium supplemented with Glutamax, Penicillin/Streptomycin (all from Gibco) and 10% FCS (PAA). Normal primary human epidermal keratinocytes (NHEKs) were purchased from Lonza and PromoCell, respectively. Cells were cultured in Keratinocyte basal growth medium (KBM; Lonza) containing KGM2 growth supplements including insulin, human epidermal growth factor, bovine pituitary extract, hydrocortisone, epinephrine, transferrin, and gentamicin/amphotericin B (Lonza). HaCaT cells were incubated in a 96-well-microtiter plate (2 × 10^4 cells/well) with Th17 cytokine-containing supernatants obtained from total CD4^+ T-cells that were polarized for 72 h in the presence of anti-CD3/CD28 antibodies and a Th17 polarization cocktail as described above. […] Cytokine concentrations in supernatants were determined from representative experiments and they contained approximately 150 pg/ml or 600 pg/ml of IL-17 in 10 μM or in 0.13 nM treated samples, respectively. The TNF-α concentration was similar in supernatants exposed to low or high Cpd A concentrations and was 4 ng/ml. To study the impact of the IL-17 cytokine, IL-17 in the supernatants and in the spike-in cocktails was neutralized by a 0.5 h pre-incubation with an IL-17-specific antibody [0.75 μg/ml; Secukinumab (Cosentyx®, Novartis)]. All cultures were incubated in triplicates and after a 24 h incubation period, HaCaT cells (6 × 10^4 cells/sample) and NHEKs (1 × 10^5 cells/sample) were harvested and further processed for qRT-PCR analysis.
Total RNA from human Th17 cells (6 × 10^5 cells), RORγt-RORE HUT78 cells (4 × 10^5 cells) and HaCaT cells (6 × 10^4 cells) was extracted using RNeasy kit including a DNAse I digestion step according to the manufacturer‘s protocol (Qiagen). Frozen skin biopsies (8 mm punches) were resuspended in RLT buffer (Qiagen) containing 1% β-mercaptoethanol and homogenized using a Precellys-Cryolys device (Bertin Instruments) according to the manufacturer's instructions. cDNAs were prepared with the High Capacity cDNA Reverse Transcription Kit (Applied Biosystems). Quantitative RT-PCR analysis was performed using a TaqManViiA7 (Applied Biosystems). All runs were accompanied by the internal control gene human β-glucoronidase (Gus) (431088E). The samples were run in triplicate or in hexaplicate and normalized to Gus using the ΔΔCt method to provide arbitrary units representing relative expression levels. The following Taqman probes were used for RT-PCR (Thermo Scientific): RORC (Hs01076112_m1), IL17A (Hs00936345_m1), IL22 (Hs01574154_m1), IL26 (Hs00218189_m1), IL23R (Hs00332759_m1), CCR6 (Hs00218189_m1), NFKBIZ (Hs00355476_m), DEFB4A (Hs00823638_m1), IL36G (Hs00219742_m1), and CCL20 (Hs00355476_m1).

total human CD4+ T-cells = assay: Th17 polarization of total CD4+ T-cells, cytokine ELISA; type: cell-based; conditions: total CD4+ T-cells, Th17 polarization 72 h, ELISA; read-out: IC50, IL-17A secretion
Protocol: Total, naive and memory CD4^+ T cells were isolated from Peripheral blood mononuclear cells (PBMCs) from healthy volunteers by density gradient centrifugation using Ficoll Paque (GE). Total, naive or memory CD4^+ T-cells were prepared by immunomagnetic separation using the respective CD4^+ T-cell enrichment kits resulting in untouched highly purified subsets (EasySep™, Stem Cell). Purity was assessed by flow cytometry and was between 95 and 98% for the total CD4^+ T-cells. The purity of naive (CD45RA^+CD45RO^−) and memory (CD45RA^−CD45RO^+) CD4^+T-cells ranged between 95 and 98%, respectively. For T-cell stimulation experiments, cells were treated as previously published ([44]). Briefly, T-cells were stimulated with plate-bound monoclonal antibodies against CD3 (1 μg/ml, clone OKT-3, BioXcell) and CD28 (1 μg/ml, clone CD28.2, BioLegend). For Th17 polarization assays, IL-6 (20 ng/ml), TGF-β1 (5 ng/ml), IL-1β (10 ng/ml), and IL-23 (10 ng/ml) were added. For Th1 polarization assays, IL-12 (10 ng/ml) and anti-IL-4 antibody (5 μg/ml), for Th2 polarizations, IL-4 (10 ng/ml) and anti-IFN-γ antibody (5 μg/ml) were added. For Th0 polarization assays, cells were only stimulated with CD3 and CD28 antibodies. Supernatants were collected after 3 or 7 days of incubation for total or naive/memory CD4^+ T-cell polarizations, respectively. Cytokine concentrations were quantified by ELISA according to the manufacturer's instructions (eBioscience or BioLegend).

[1] = test system: HUT78 T-cells stably expressing full-length eGFP-RORγt; assay: IL-17A / IL-2 production by RORγt transduced HUT78 T-cell line; type: cell-based, human; conditions: PMA plus anti-CD3, 48 h, ELISA
[2] = test system: STAT3 phosphorylation in Ba/F3 cells stably expressing the human IL-21 receptor; assay: IL-21-induced phospho-STAT3 by flow cytometry; type: cell-based; conditions: 1 μM, 1 h pre-incubation
Protocol: To assess whether Cpd A affected STAT3 activity we induced STAT3 phosphorylation in Ba/F3 cells stably expressing the human IL-21 receptor (kindly provided by Dr. Max Warncke, Novartis). Cells were pre-incubated for 1 h with 10 μM of Cpd A or with 1 μM of the pan-JAK inhibitor CP690550. To induce STAT3 activity, the cells were stimulated for 1.5 h with recombinant human IL-21 (3 nM), followed by two washing steps using buffer containing PBS/0.5% BSA. The cells were fixed with 2% paraformaldehyde for 15 min at room temperature, washed and resuspended in ice-cold 90% methanol solution and stored overnight at −20°C. The samples were washed and stained for 1 h with an Alexa 647-labeled anti-phospho (pY705)-STAT3 antibody (BD biosciences). After two washes the cells were analyzed using a LSR Fortessa (BD Bioscience) and analyzed using FlowJo software (Tree Star).

[3] = target: T1, human RORγt ligand binding domain (264-518), His6-tagged (human, UniProt P51449-1 264-518); assay: FRET or BRET; TR-FRET in solution: 6 nM His6-tagged RORγt-LBD, 90 nM biotinylated RIP140 co-activator peptide, 0.45 nM Cy5-labeled streptavidin, 1.5 nM Europium-labeled anti-His6 antibody; 1 h incubation; emissions at 615 and 665 nm; displacement by the small molecules Cpd A or SR2211; conditions: both partners purified
T1 construct: also called RORγt-LBD; His6-tagged RORγt-LBD; source: produced at Novartis
T1 sequence (looked up): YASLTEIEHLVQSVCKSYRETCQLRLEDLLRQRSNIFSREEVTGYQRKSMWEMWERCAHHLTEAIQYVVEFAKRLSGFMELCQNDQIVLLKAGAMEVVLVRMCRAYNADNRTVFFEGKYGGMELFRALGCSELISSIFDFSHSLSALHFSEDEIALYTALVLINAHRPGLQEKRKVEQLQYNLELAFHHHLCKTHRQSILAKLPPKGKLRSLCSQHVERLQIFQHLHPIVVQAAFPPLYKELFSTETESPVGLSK

Molecule: Secukinumab: neutralizing IL-17-selective antibody (Cosentyx, Novartis)
- NFKBIZ, DEFB4A, CCL20, IL36G gene expression in NHEKs (spike-in) (NHEKs): reduced gene expression
- IL36G expression in HaCaT after IL-17 neutralization in Th17 supernatants (HaCaT keratinocytes; 0.75 μg/ml): moderate inhibition
- IL-17A/TNFα-mediated gene expression in HaCaT (spike-in) (HaCaT keratinocytes; 0.75 μg/ml pre-incubation of cytokines, similar to TNFα-induced levels): significantly impaired
- IL-17 activated transcripts in HaCaT after IL-17 neutralization in Th17 supernatants (HaCaT keratinocytes; 0.75 μg/ml, to levels seen with Th17 cytokines only): further downregulation

Molecule: OC(c1ccc(-c2ccc(CN3CCN(Cc4ccncc4)CC3)cc2)c(F)c1)(C(F)(F)F)C(F)(F)F [SR2211, reference compound]
- IC50 (total human CD4+ T-cells): 1480 ± 739 nM
- IC50 [1]: 257 ± 181 nM

Molecule: C[C@@H]1CCN(C(=O)CC#N)C[C@@H]1N(C)c1ncnc2[nH]ccc12 [CP690550, reference compound]
- IL-21-induced STAT3 activity (pY705-STAT3) [2]: blocked

B1: biotinylated RIP140 derived co-activator peptide (peptide)
peptide: {Biotin-Ahx}-NSHQKVTLLQLLLGHKNEEN-NH2
SMILES: CC(C)C[C@H](NC(=O)[C@H](CC(C)C)NC(=O)[C@H](CC(C)C)NC(=O)[C@H](CCC(N)=O)NC(=O)[C@H](CC(C)C)NC(=O)[C@H](CC(C)C)NC(=O)[C@@H](NC(=O)[C@@H](NC(=O)[C@H](CCCCN)NC(=O)[C@H](CCC(N)=O)NC(=O)[C@H](Cc1c[nH]cn1)NC(=O)[C@H](CO)NC(=O)[C@H](CC(N)=O)NC(=O)CCCCCNC(=O)CCCC[C@@H]1SC[C@@H]2NC(=O)N[C@@H]21)C(C)C)[C@@H](C)O)C(=O)NCC(=O)N[C@@H](Cc1c[nH]cn1)C(=O)N[C@@H](CCCCN)C(=O)N[C@@H](CC(N)=O)C(=O)N[C@@H](CCC(=O)O)C(=O)N[C@@H](CCC(=O)O)C(=O)N[C@@H](CC(N)=O)C(N)=O
notes: also called RIP140 peptide; source: bought: Thermo Scientific
- binding result [3]: binds
